Entries after “also recorded” stand apart in the source; their conditions may differ. Like-named read-outs stand apart in the source and are kept apart here.
Legend:
[1] = Skin photosensitivity in a murine model; assay type: in vivo; conditions: laser on the skin after 1 hour, monitored over 4 days, scale of 1-4
Procedure: FIG. 24: Skin photosensitivity of Foscan compared to compound II. Photosensitisers were administered at t=0 hrs and a laser shone on the skin after 1 hour. The skin reaction was followed over time and the results were plotted according to the scale shown.
Skin photosensitivity is an important issue to be resolved in PDT. […] In a murine model, Foscan was administered at clinical doses (ref 109) and compared to compound 11 and a photo-immunoconjugate of compound 11. Skin photosensitivity was monitored over 4 days by observation according to a scale of 1-4 (FIG. 24).

[2] = background statement; cited from earlier work
[3] = Photophysical parameters of the photosensitisers; assay type: physicochemical; conditions: for φΔ, singlet oxygen quantum yield: determined vs. PPa in toluene (0.5), 10% error; for φf, fluorescence quantum yield: determined vs. PPa in toluene (φf = 0.3), 5% error
[4] = test system: SKOV3 cells; assay: Confocal fluorescence microscopy, intracellular localisation with organelle co-stains; assay type: cell-based, human; conditions: for golgi localisation (co-localisation with Bodipy ceramide): FIG. 20; for mitochondrial localisation (co-localisation with Mito-tracker): FIG. 21; for lysosomal localisation (co-localisation with Lyso-tracker): FIG. 22
Procedure: Imaging took place at the FILM Imperial College London on a LEICA SP5 MP inverted confocal microscope, at 37° C. and under a CO2 supplemented atmosphere. The water objective (63×) was used in all the experiments. Images were processed using the Leica software, Image J and Powerpoint.
Note: in any experiment where a photosensitiser is used on cells, the experiment is done under subdued lighting exposing the cells to as little light as possible and incubating wrapped in foil. Following addition of PS to cells, cells were no longer observed on the microscope.
Cells were plated on a Labt-Tek® 8 Chambered #1.0 Borosilicate Coverglass System. With some cell lines, it is often useful to use an attachment factor (200 μl, 30 mins, 37° C.) to coat the wells first.
Photosensitiser solutions in phenol red free DMEM (10% FBS, 1% P/S, 0.5% DMSO) were prepared fresh and pre-warmed to 37° C. for 15 mins. The cells were washed with media (1×200 μl) before adding the solutions (200 μl per chamber). Unless otherwise stated, the cells were grown over 20 hrs in a humidified atmosphere (37° C., 5% CO2). The cells were washed (2×200 μl) with prewarmed phenol red free DMEM
(§1) Lysotracker® Green DND-26 was diluted according to manufacturers indications (1 mM stock) and further diluted to twice the working concentration in DMEM (10% FBS, 1% P/S). For use for single colour staining, this was diluted with DMEM (10% FBS, 1% P/S) to a final concentration of 1 μM. When it was used for two colour staining with photosensitisers, a 2 μM solution was twice diluted in photosensitiser solution to give a 1 μM final concentration.
The cells were incubated for 15 mins at 4° C. and a further 30 mins at 37° C. before replacing with fresh medium and imaging.
as §1, with “MitoTracker®” for “Lysotracker®”, “Green” for “Green DND-26”
The cells were incubated for 15 mins at 4° C. and a further 1 hr at 37° C. before replacing with fresh medium and imaging.
ER-Tracker™ Green (BODIPY® FL glibenclamide) was diluted according to manufacturer's indications (1 mM stock) and further diluted to twice the working concentration in HBSS buffer (+2% HEPES). For use for single colour staining, this was diluted with HBSS (+2% HEPES) to a final concentration of 3 μM. When it was used for two colour staining with photosensitisers, a 6 μM solution was twice diluted in photosensitiser solution to give a 3 μM final concentration.
The cells were incubated for 15 mins at 4° C. and a further 1 hr at 37° C. before replacing with fresh buffer and imaging.
Bodipy® FL C5-ceramide complexed to BSA was diluted according to manufacturer's indications (0.5 mM stock) and further diluted to twice the working concentration in HBSS buffer (+2 HEPES). For use for single colour staining, this was diluted with HBSS (+2% HEPES) to a final concentration of 5 μM. When it was used for two colour staining with photosensitisers, a 10 μM solution was twice diluted in photosensitiser solution to give a 5 μM final concentration. The cells were incubated for 15 mins at 4° C. and a further 30 mins at 37° C. before washing with cold HBSS/HEPES (3×100 μl) and replacing with either HBSS/HEPES or photosensitiser solution and incubating at 37° C. for a further 30 mins before replacing with fresh buffer and imaging.

[5] = Biodistribution and blood clearance of 125I-radiolabelled photosensitisers and PICs in SKOV3 tumour mice; assay type: in vivo, BALB/c nude mice; conditions: for blood clearance: iv, radiolabelled, 1-24 hr, SKOV3 tumour mice
Procedure: 0.1 mg of photosensitiser was dissolved in 0.5 ml PBS. Radiolabelled Iodine (Na^125I, ICN chemicals) was added to 0.1 ml of PBS in Iodogen-coated tubes (Pierce chemicals) and allowed to activate. The activated iodine-125 was transferred to the photosensitiser and allowed to react for 5-10 minutes at room temperature. The radiolabelled photosensitiser was separated from free iodine on a mini silica gel column eluting with 100% PBS to remove the iodinating agent followed by a gradual switch from 10% MeOH/PBS to 100% MeOH with the radiolabelled photosenstiser eluting with 10% MeOH/chloroform. The radiolabelled solutions of the photosensitiser was allowed to air-dry and re-suspended in PBS containing 2% DMSO.
(§2) Female BALB/c nude mice (aged 6-8 weeks old) were implanted with 10^7 SKOV3 tumour cells mixed in 0.1 ml of ice-cold matrigel subcutaneously and the tumours were allowed to grow for 3-6 weeks as xenografts. Mice were maintained in IVC cages (individually-vented cages) in a clean room. Samples were injected in a volume of 0.1 ml, intravenously via the lateral tail vein and the mice were maintained in low light with full food and water (irradiated). At various time points (1-24 hr), mice were culled by cardiac puncture under terminal anesthesia and blood and tissues collected. All the tissues were counted for radioactivity by gamma counting and weighed.
The results are shown as a percentage of radioactive material injected per gram of tissue.
(§3) The PS (PPa and PPa-PEG) were chemically coupled to C6 scFv, radiolabelled with iodogen as before, but dialysed against 3×5 L of PBS to remove the free iodine and injected into BALB/c nude mice with SKOV3 tumours as above. Tissues were dissected and counted as above.

[6] = test system: SKOV3; assay: In vitro phototoxicity (MTS cell titre assay after 670 nm laser light), Example 5; assay type: cell-based, human; conditions: free photosensitisers, 2 hrs incubation, 670 nm laser 0.5 W 10 s, MTS after 48 h
Procedure: (§4) Two different human-derived tumour cell lines: SKOV3 and KB were obtained from the European Collection of Cell Cultures (ECACC) and cultured in Dulbecco's modified Eagle's medium (DMEM) with 10% foetal bovine serum, penicillin and streptomycin antibiotics (1%) and passaged when 70-90% confluent in 75 cm^2 flasks. The cells were maintained at 37° C. in a humidified 5% CO2 atmosphere.
(§5) Cells were trypsinised and seeded at 2×10^3 cells/well for KB and 3×10^3 cells/well for SKOV3 into 96-well plates and incubated over two nights for KB and overnight for SKOV3 at 37° C. and 5% CO2. The cells were then washed once in phenol red free DMEM and appropriately diluted photosensitiser solution or photo-immunoconjugate (in DMEM, 2% DMSO) was added to the appropriate wells under subdued lighting. DMEM or Triton X-100 (1%) were added to control wells. After 2 hrs incubation in the dark at 37° C., 5% CO2, cells were washed three times with PBS and 100 μl of DMEM was added to each well.
(§6) Wells were exposed to light from a High Powered-Devices 670 nm laser used at 0.5 W for 10 s. Controls included wells with photosensitiser added and no exposure to light, or DMEM added and exposure to light as well as Triton X-100 (1%) with or without light exposure. Cells that had no photosensitiser added and no exposure to light were included as overall controls. Cells were incubated in the dark at 37° C., 5% CO2 for 48 h after which time, a cell titre assay was performed according to the manufacturer's instructions. The Promega Cell Titre-96 system was used which involves the conversion by live cells of a tetrazolium compound (MTS) into a formazan dye which is measurable by its absorbance at 490 nm.

[7] = test system: KB; assay: as above; assay type: cell-based, human; conditions: free photosensitisers, 2 hrs incubation, 670 nm laser 0.5 W 10 s, MTS after 48 h
Procedure: as §4, §5, §6

[8] = Solubility in water or buffer (observations); assay type: physicochemical
[9] = reference value of PPa in toluene; cited from earlier work
[10] = test system: SKOV3 tumour; assay: Tumour uptake and tumour:blood ratio of radiolabelled photosensitisers and PICs; assay type: in vivo, BALB/c nude mice; conditions: % of the injected dose/g of tumour tissue
Procedure: as §2, §3
The tumours were counted for radioactivity and expressed as % of the injected dose/g of tumour tissue (FIG. 10).
The percentage PS in the tumour was divided by the percentage in the blood (gram for gram) to give a targeting or tumour:blood ratio (the higher the better). This plotted in FIG. 11. A high tumour:blood ratio means that there is more in the tumour compared to the blood (and other tissues). This is a function of tumour uptake and blood clearance (see FIGS. 9 and 10).

## Oc1cccc(-c2c3nc(c(-c4cccc(O)c4)c4ccc([nH]4)c(-c4cccc(O)c4)c4nc(c(-c5cccc(O)c5)c5ccc2[nH]5)CC4)C=C3)c1 [Foscan, reference compound]
[1]
  skin photosensitivity: significant skin sensitivity
[2]
  skin photosensitivity (duration): about 2 weeks

## CCC1=C(C)c2cc3[nH]c(c(C)c3CC)c(C#CCCCC(=O)O)c3nc(c4c5[nH]c(cc1n2)c(C)c5C(=O)C4)[C@@H](CCC(=O)OCc1cc(OCCOCCOCCOC)c(OCCOCCOCCOC)c(OCCOCCOCCOC)c1)[C@@H]3C [compound 10, Meso 5-Ethynylhexanoic acid pyropheophorbide a-3,4,5-(triethylene glycolmonomethylether) benzyl ester]
[3]
  τΔ, singlet oxygen lifetime: 30 μs
  φΔ, singlet oxygen quantum yield: 0.56
  φf, fluorescence quantum yield: 0.26

## CCC1=C(C)c2cc3[nH]c(c(C)c3CC)c(-c3cc[n+](CCOCCOCCOC)cc3)c3nc(c4c5[nH]c(cc1n2)c(C)c5C(=O)C4)[C@@H](CCC(=O)O)[C@@H]3C [compound 31C, 3-devinyl-20-(4-triethyleneoxidepyridinium) pyropheophorbide-a chloride]
[3]
  τΔ, singlet oxygen lifetime: 30 μs
  φΔ, singlet oxygen quantum yield: 0.73
  φf, fluorescence quantum yield: 0.15
[4]
  golgi localisation (co-localisation with Bodipy ceramide): very little yellow staining
  mitochondrial localisation (co-localisation with Mito-tracker): very little yellow staining
  lysosomal localisation (co-localisation with Lyso-tracker): significant yellow staining
[4]; FIG. 23
  ER localisation (co-localisation with ER-tracker): no yellow staining
[4]; no co-stain, FIG. 19
  intracellular localisation (intrinsic fluorescence): more punctuate staining pattern indicative of endosomal (aqueous compartment) localisation
[5]
  blood clearance: clears more rapidly than the PPa-PEG
[6]; Homo sapiens, SK-OV-3
  IC50: 260 ± 31 µM
[7]; Homo sapiens, KB
  IC50: 24.7 ± 11.7 µM

## Manganese(III)-5-ethynyl hexynoic acid pyropheophorbide a-3,4,5-(triethylnene glycol monomethyl ether) benzyl ester [compound 57]
[8]
  solubility in water: water soluble

## Meso pyropheophorbide a-3,4,5-(triethylene glycol monmethylether) 3-devinyl-3-carboxybenzyl-3,4,5-(triethylene glycol monomethylether) pyropheophorbide a [compound 38]
[8]
  solubility in water: highly aqueous soluble

## N-Bis-[3-(trimethylamino)propyl]-meso 5-Bromopyropheophorbide a amide diiodide [compound 19]
[8]
  solubility in water: readily soluble in water and methanol

## Pyropheophorbide-a [PPa, reference compound]
[3]
  τΔ, singlet oxygen lifetime: 30 μs
[4]
  golgi localisation (co-localisation with Bodipy ceramide): significant yellow staining
  mitochondrial localisation (co-localisation with Mito-tracker): significant yellow staining
  lysosomal localisation (co-localisation with Lyso-tracker): insignificant yellow staining
[9]
  φf, fluorescence quantum yield: 0.3
  φΔ, singlet oxygen quantum yield: 0.5
[5]; % of radioactive material injected per gram of tissue, over 24 hour
  level in tissues (biodistribution): high levels in all major tissues
[5]
  blood clearance: resides in the blood for a long time; also recorded: very slow
[6]
  IC50: 14.5 ± 3.2 µM
[7]
  IC50: 1.2 ± 0.4 µM
[10]
  tumour uptake: high
